Results as given in publication PMC12412453 (Toxicology, 2021).
Several values for one entry are separate records, joined by “and”; a condition that tells them apart may be missing. Equal entries are not always repeated. Where two headings read alike, the source gives them in different places.

Key:
[1] = reported findings; ref References column of Table 1; cited from earlier work
[2] = reported findings; ref References column of Table 1; cited from earlier work; remark: listed apart in the source
[3] = system: primary macaque hepatocytes (PMHs); experiment: CometChip assay; conditions: for BMDU/BMDL / DNA damage (ratio of %DNA in tail at highest concentration to vehicle control) / LEC (lowest effective concentration) / BMDL50–BMDU50 / Potency ranking: PMH; for BMD50: PMH CometChip data, PROAST exponential model; for DNA damage (ratio of %DNA in tail at highest concentration to vehicle control) / LEC (lowest effective concentration): 24-h treatment; for LEC (lowest effective concentration): lowest concentration positive in comet assay; for BMDL50–BMDU50: 90 % confidence interval of BMD50; for Potency ranking: rank by BMD50 among nine positive compounds; for fold increase in % tail DNA (DNA damage) compared to the vehicle control: PMHs, highest acceptable concentration, range given for four compounds together
[4] = system: primary human hepatocytes (PHHs); conditions: ref Seo et al., 2020, cited from earlier work; for Max. con.: maximum concentration
[5] = system: primary human hepatocytes (PHHs); conditions: ref Seo et al., 2020, cited from earlier work; for BMD50: PHH CometChip data reanalyzed using PROAST; for BMDL50–BMDU50 / Potency ranking / LEC (lowest effective concentration) / BMDU/BMDL / DNA damage (ratio of %DNA in tail at highest concentration to vehicle control): PHH; for BMDL50–BMDU50: 90 % confidence interval of BMD50; for Potency ranking: rank by BMD50 among nine positive compounds; for LEC (lowest effective concentration): lowest concentration positive in comet assay
[6] = system: primary macaque hepatocytes (PMHs); experiment: Cytotoxicity by ATP assay; conditions: for Max. con.: maximum concentration
[7] = reported findings; ref References column of Table 1; cited from earlier work; remark: listed apart in the source
cynomolgus monkeys = conditions: dosed cynomolgus monkeys; ref Thorgeirsson et al., 1995; cited from earlier work
[8] = Cytotoxicity by ATP assay; conditions: rhesus macaque, primary macaque hepatocytes (PMHs)

| Structure (SMILES) | Genotoxicity assay findings in vivo [1] | Genotoxicity assay findings in vitro [2] | Cytotoxicity ([4]; PHH, ATP assay, 24-h treatment) | Max. con. ([4]; PHH) | DNA damage (ratio of %DNA in tail at highest concentration to vehicle control) [5] | Max. con. ([6]; PMH, 24-h treatment) | Cytotoxicity ([6]; PMH, ATP assay, 24-h treatment) | Carcinogenicity [7] | other results |
| --- | --- | --- | --- | --- | --- | --- | --- | --- | --- |
| Cc1ccc(N)cc1N [2,4-DAT, 2,4-diaminotoluene] | (+) for UDS and comet; (+/−) for MN in BM | (+) for MLA, CA, MN, comet, and UDS; (−) for comet in HepaRG and Hprt | + (11–30 %) | 8000 µM | ++ (2 < ratio ≤ 5) | 8000 µM | + (11–30 %) |  | BMD50 fold higher in PMHs than in PHHs (lower in PHHs) ([3]; CometChip BMD50, PMH vs PHH): 3.2 fold; BMDU/BMDL [3]: 2.6; BMD50 [3]: 2831 µM; DNA damage (ratio of %DNA in tail at highest concentration to vehicle control) [3]: ++ (2 < ratio ≤ 5); LEC (lowest effective concentration) [3]: 8000 µM; BMDL50–BMDU50 [3]: 1790 to 4660 µM; Potency ranking [3]: 9; BMD50 [5]: 880.6 µM; BMDL50–BMDU50 [5]: 489 to 1580 µM; Potency ranking [5]: 9; LEC (lowest effective concentration) [5]: 1414 µM; BMDU/BMDL [5]: 3.2 |
| CCCC(O)C(CC)CO (centres unmarked) [2-Ethyl-1,3-hexanediol] |  | (+) for CA + S9; (−) for MLA, Hprt, MN, and SCE | + (11–30 %) | 10,000 μM | − (The ratio ≤ 1.5-fold and p ≥ 0.05) | 10,000 μM | + (11–30 %) | (−) in dermal studies |  |
| O=[N+]([O-])c1cc[n+]([O-])c2ccccc12 [4-NQO, 4-nitroquinoline 1-oxide] |  | (+) for CA, MLA, Pig-a, comet | + (11–30 %) | 5 µM |  | 7.5 µM | + (11–30 %) |  | BMD50 [5]: 0.3 µM; BMDL50–BMDU50 [5]: 0.1 to 0.6 µM; Potency ranking [5]: 1 |
| Cc1cnc2ccc3c(nc(N)n3C)c2n1 [8-MeIQx, 2-amino-3,8-dimethylimidazo[4,5-f]-quinoxaline] |  |  |  |  |  |  |  |  | DNA adducts in several organs, particularly liver, kidney, and heart (cynomolgus monkeys): high levels of DNA adducts |
| [Cl][Cd][Cl] [CdCl2, cadmium chloride] | (+) for CA and MN, comet in liver | (+) for MN, CA, MLA, Hprt, comet | + (11–30 %) | 4 µM | + (1.5 < ratio ≤ 2, and p < 0.05) | 4 µM | ++ (31–50 %) | (+) for lung, prostate, etc. | BMDU/BMDL [3]: 2.3; BMD50 [3]: 0.37 µM and 0.4 µM; DNA damage (ratio of %DNA in tail at highest concentration to vehicle control) [3]: +++ (the ratio > 5); LEC (lowest effective concentration) [3]: 2 µM; BMDL50–BMDU50 [3]: 0.2 to 0.5 µM; Potency ranking [3]: 1; fold increase in % tail DNA (DNA damage) compared to the vehicle control [3]: 6.1–8.1 fold; Cytotoxicity ([4]; PHHs, 4 μM): 25%; BMD50 [5]: 0.9 µM; BMDL50–BMDU50 [5]: 0.5 to 1.6 µM; Potency ranking [5]: 2; LEC (lowest effective concentration) [5]: 1 µM; BMDU/BMDL [5]: 3.2; Cytotoxicity ([6]; PMHs, 4 μM, 24-h exposure): 43% |
| COc1cc2c(c(OC)c1OC)-c1ccc(OC)c(=O)cc1[C@@H](NC(C)=O)CC2 [Colchicine] |  |  | + (11–30 %) |  |  |  | + (11–30 %) |  |  |
| COc1cc(/C=C/C(=O)CC(=O)/C=C/c2ccc(O)c(OC)c2)ccc1O [Curcumin] |  |  | + (11–30 %) | 40 µM |  | 40 µM | + (11–30 %) |  |  |
| Cc1c2ccccc2c(C)c2c1ccc1ccccc12 [DMBA, 7,12-dimethylbenzanthracene] | (+) for MN and Pig-a in blood, comet in liver, CA in BM, gene mutation | (+) for MLA, CA, MN, comet, and UDS | − (cytotoxicity of 0–10 %) | 250 µM | ++ (2 < ratio ≤ 5) | 500 µM | + (11–30 %) | (+) for mammary liver, skin tumor, etc. | BMD50 fold higher in PHHs than in PMHs (lower in PMHs) ([3]; CometChip BMD50, PHH vs PMH): 3.8 fold and 3.75 fold; BMDU/BMDL [3]: 2.4; BMD50 [3]: 4.0 µM; DNA damage (ratio of %DNA in tail at highest concentration to vehicle control) [3]: +++ (the ratio > 5); LEC (lowest effective concentration) [3]: 31.25 µM; BMDL50–BMDU50 [3]: 2.6 to 6.1 µM; Potency ranking [3]: 3; fold increase in % tail DNA (DNA damage) compared to the vehicle control [3]: 6.1–8.1 fold; LEC fold higher in PHHs than in PMHs ([3]; comet assay LEC, PHH vs PMH): 2 fold; BMD50 [5]: 15.1 µM; BMDL50–BMDU50 [5]: 8.5 to 25.8 µM; Potency ranking [5]: 6; LEC (lowest effective concentration) [5]: 62.5 µM; BMDU/BMDL [5]: 3.0; cytotoxic effects (in words) ([6]; PMHs, ATP assay, 24-h exposure): cytotoxic effects over the same range of concentrations, but only in PMHs |
| CCc1cc(C(N)=S)ccn1 [Ethionamide] | (−) for comet |  | + (11–30 %) | 2000 µM | − (The ratio ≤ 1.5-fold and p ≥ 0.05) | 2000 µM | + (11–30 %) | (−) in rats and mice |  |
| Oc1ccc(O)cc1 [HQ, hydroquinone] | (+) for CA, MN; (−) for comet and TG in liver and stomach | (+) for MLA, MN, CA, comet | ++ (31–50 %) | 200 µM | − (The ratio ≤ 1.5-fold and p ≥ 0.05) | 200 µM | + (11–30 %) | (+) for liver and kidney adenoma | cell viability ([4]; PHHs, 200 μM, range given for cisplatin and HQ together): 55–63%; viability at 24 h, 200 µM [8]: 78 to 81% |
| Cn1c(N)nc2c3cccnc3ccc21 [IQ, 2-amino-3-methylimidazo-[4,5-f]-quinoline] |  |  |  |  |  |  |  |  | DNA adducts in several organs, particularly liver, kidney, and heart (cynomolgus monkeys): high levels of DNA adducts |
| Cn1c(N)nc2ncc(-c3ccccc3)cc21 [PhIP, 2-amino-1-me-thyl-6-phenylimidazo-[4,5-b]-pyridine] |  |  |  |  |  |  |  |  | DNA adducts in several organs, particularly liver, kidney, and heart (cynomolgus monkeys): high levels of DNA adducts |
| Oc1cccc(O)c1 [Resorcinol] |  |  | ++ (31–50 %) | 2000 µM | − (The ratio ≤ 1.5-fold and p ≥ 0.05) | 1000 µM | ++ (31–50 %) | (−) in rats and mice |  |
| Nc1ccccc1C(=O)O [o-Anthranilic acid] | (−) for Pig-a, MN, CA, comet |  | − (cytotoxicity of 0–10 %) | 5000 µM | − (The ratio ≤ 1.5-fold and p ≥ 0.05) | 5000 µM | ++ (31–50 %) |  | DNA damage (ratio of %DNA in tail at highest concentration to vehicle control) [3]: − (The ratio ≤ 1.5-fold and p ≥ 0.05); cytotoxic effects (in words) ([6]; PMHs, ATP assay, 24-h exposure): cytotoxic effects over the same range of concentrations, but only in PMHs |
